The results in this text go back to paper PMC9260667, “Thioredoxin Reductase Inhibitors as Potential Antitumors: Mercury Compounds Efficacy in Glioma Cells” (Frontiers in Molecular Biosciences, 2022).

The test system of experiment [1] is GL261 cells. As to the kind of experiment: cells. The experiment is classed as cell-based, mouse. To be noted: read-out: IC50 (MTT assay). As to the method:
The effect of TmHg and EtHg on the viability of GL261 and N9 cells was evaluated by the MTT assay as previously described ([Branco et al., 2014]). Briefly, cells (5 × 10^3) were seeded in 96-well plates (Nunc®) and incubated at 37°C for 24 h to allow proper adherence to plates. Afterwards, TmHg and EtHg (0, 0.5, 1, 2.5, and 5 μM) were added to wells. The same procedure was carried out to evaluate the effect of TMZ on the cellular viability of GL261 and DMSO at a final concentration of 0.1% was added as a control group. For co-exposure, the addition of the mercury compounds (EtHg—1 and 2 μM; TmHg—1 and 2 µM) under study followed the addition of TMZ (200 µM).
Cell viability was determined at the time of addition of the compounds (0 h) and after 24, 48, and 72 h of exposure by adding MTT to a final concentration of 400 μg/ml per well and incubating at 37°C for 4 h. After incubation, the medium was removed, and the formazan crystals were dissolved in a 4:1 DMSO/glycine buffer (pH 10.5). After shaking for 15 min, the viability was evaluated through the measurement of formazan absorption at 550 nm on a microplate reader (Zenyth 3100, Anthos Labtec Instruments) ([Branco et al., 2014]).
The IC50 is the concentration of a compound that decreases MTT reduction by 50% relative to the non-treated control at each time point.
For orientation: Formazan colour is commonly taken as a measure of viable cells.

For experiment [2], the system named is GL261 cells. In words: cells. The experiment is classed as cell-based, mouse. To be noted: for increase of LDH release upon co-exposure with TMZ: GL261, 200 µM TMZ + 1 µM mercury compound; for EC50: GL261, 24 h exposure, read-out: EC50 (LDH assay). As to the method: Cells were seeded in 96-well plates for 24 h prior to the addition of TmHg, EtHg (1 µM), TMZ (200, 400, and 800 µM), and for the 48 h end point the co-exposure of TMZ 200 µM with 1 µM EtHg and 1 µM TmHg. After exposure for 24 and 48 h, the supernatant was transferred to a fresh plate and a lysis buffer (10×) (Thermo Scientific™ Pierce™) was added to wells containing cells and incubated at 37°C for 45 min. LDH activity was evaluated using LDH Cytotoxicity Assay Kit from Thermo Scientific™ Pierce™ in the supernatant and lysate by the addition of lactate (substrate), a tetrazolium salt, and NAD^+ (cofactor) (Reaction Mixture), according to the manufacturer’s instructions. Following 30 min of incubation in the dark at room temperature, LDH release was assessed by measuring the absorbance at 490 and 680 nm in a microplate reader (Omega BMG LABTECH). The release of LDH was quantified as the ratio between the amount in the supernatant and total LDH (supernatant + lysate) ([Branco et al., 2017]).

In experiment [3] the target is T1, TrxR (Mus musculus, UniProt Q9JLT4).
T1 construct: These lysates were compared to a control group and used to quantify TrxR and Trx activity and expression; These fractions were used to quantify TrxR and Trx activity and expression; endogenous in cells; host or cells: GL261 mouse glioma cells (whole lysate, cytosolic and mitochondrial fractions)
It is filed as cell-based. The note with it: mitochondria, 1 µM, 24 h. As to the method:
(§1) Total cell lysates were prepared according to previous protocols ([Branco et al., 2014]). 1 × 10^6 cells were plated in […] culture dishes incubated at 37°C until reaching 70–80% confluence. At this point, the culture medium was refreshed and TmHg and EtHg (0.5; 1; 2 µM) were added and incubated at 37°C for 24 h, after which cells were collected by trypsinization and washed with PBS 1x. Subsequently, the pellet was resuspended in lysis buffer (25 mM TrisCl, pH 7.5; 100 mM NaCl; 2.5 mM EDTA; 2.5 mM EGTA; 20 mM NaF, 1 mM sodium orthovanadate, 20 mM sodium pyrophosphate; 20 mM of sodium β-glycerophosphate, 0.5% Triton X-100, and 1 tablet of protease inhibitor cocktail per 10 ml; Roche) vortexed and frozen at −20°C. These lysates were compared to a control group and used to quantify TrxR and Trx activity and expression as described below.
(§2) To obtain the mitochondrial and cytosolic fractions, after exposure to Hg compounds cells were washed and suspended in mitochondrial isolation buffer (210 mM mannitol, 70 mM sucrose, 1 mM EDTA, 10 mM Hepes–NaOH, and pH 7.5), containing protease inhibitor cocktail (Roche). Cells were disrupted with a Teflon pestle and then centrifuged at 600 g for 10 min at 4°C. The resulting nuclear pellets were discarded, and the supernatant was further centrifuged at 13,000 g and 4°C for 15 min, to obtain the mitochondrial pellets and the supernatant soluble fraction. Mitochondrial pellets were treated with cell lysis buffer as described above for whole-cell lysates and the supernatant fraction was further centrifuged at 100,000 g and 4°C for 1 h, to produce the cytosolic fraction ([Branco et al., 2014]). These fractions were used to quantify TrxR and Trx activity and expression as described below.
(§3) The enzymatic activity of TrxR and Trx was determined according to the insulin end-point assay described by [Arnér and Holmgren (2000)] with modifications ([Branco et al., 2014]).
(§4) In parallel, control wells were prepared to contain the same reagents previously mentioned apart from Trx. After the incubation period, 250 µL of a 1 mM DTNB solution in 6 M guanidine-HCL (pH 8.0) was added to wells, and absorbance was measured at 412 nm in a microplate reader (Zenyth 3100, Anthos Labtec Instruments). […] The same procedure was done for the determination of Trx activity, but the samples were incubated with 100 nM of recombinant rat TrxR (IMCO Corp, Sweden) instead of Trx ([Branco et al., 2014]).

The test system of experiment [4] is TrxR. It is filed as cell-based, mouse. To be noted: for decrease of TrxR activity: cytosol, 1 µM, 24 h; for IC50: whole-cell lysates, GL261 exposed 24 h. On the procedure:
as §1, §2, §3, §4

The next experiment deals with Trx. It is filed as cell-based, mouse. The note with it: whole-cell lysates, GL261 exposed 24 h. As to the method: as §1, §2, §3, §4
A further experiment has as its system Caspase-3. As to the kind of experiment: Caspase-3 activity (DEVD-pNA assay) in lysates of exposed GL261 cells. It is filed as cell-based, mouse. To be noted: GL261, 5 µM, 24 h. As to the method:
Caspase-3 activity was determined by measuring the enzymatic cleavage of chromophore p-nitroanilide (pNA) from the substrate N-acetyl-Asp-Glu-Val-Asp-pNA (DEVD-pNA) ([Borralho et al., 2007]).
This activity was determined based on a proteolytic reaction previously described ([Borralho et al., 2007]) with some modifications. In this assay total cell lysates were used, where cells were exposed to the TmHg and EtHg (1; 2 and 5 µM) for 24 h. This reaction was performed in an isolation buffer, containing 100 μg of cytosolic protein of cellular lysates, 50 μM of DTT, and […] of DEVD-pNA (Sigma-Aldrich). Next, the reaction mixtures were incubated at 37°C for 3 h. Finally, the pNa formation was measured at 405 nm using a microplate reader (Zenyth 3100, Anthos Labtec Instruments) ([Borralho et al., 2007]).

Read-outs that look alike come from different tables or passages of the source.

T1 sequence (Q9JLT4 35-524): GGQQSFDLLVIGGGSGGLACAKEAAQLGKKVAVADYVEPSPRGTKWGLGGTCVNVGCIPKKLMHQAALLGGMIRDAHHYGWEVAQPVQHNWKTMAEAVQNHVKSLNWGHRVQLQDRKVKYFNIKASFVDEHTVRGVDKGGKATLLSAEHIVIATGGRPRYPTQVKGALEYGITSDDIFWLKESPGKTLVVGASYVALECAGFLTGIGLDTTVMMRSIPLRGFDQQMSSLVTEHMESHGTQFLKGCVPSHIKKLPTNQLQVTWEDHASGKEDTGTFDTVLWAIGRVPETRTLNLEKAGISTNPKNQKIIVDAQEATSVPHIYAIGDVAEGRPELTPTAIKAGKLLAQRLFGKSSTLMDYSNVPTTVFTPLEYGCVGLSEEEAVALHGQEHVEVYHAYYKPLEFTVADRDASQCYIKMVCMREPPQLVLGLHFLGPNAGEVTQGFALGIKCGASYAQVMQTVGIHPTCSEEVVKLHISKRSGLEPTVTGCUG

Turning to `C[CH2][Hg][S]c1ccccc1C(=O)[O-].[Na+]` [TmHg, thimerosal], the half-inhibitory concentration (IC50) – broadly, the concentration needed to halve the response being measured – came out at 2500 ± 400 nM in the experiment on GL261 cells [1] (GL261, 24 h exposure); 2500 ± 400 nM in the experiment with GL261 cells [1] (GL261, 48 h exposure); 920 ± 100 nM with GL261 cells [1] (GL261, 72 h exposure); 700 nM in the experiment on TrxR [4]; 700 nM with Trx. Further, the “increase of LDH release upon co-exposure with TMZ” value with GL261 cells [2] is “greater than 50%”. For the same compound, the concentration giving a half-maximal response (EC50) (as a rule, the concentration needed to bring the measured effect to its halfway point) with GL261 cells [2] amounted to 1310 ± 200 nM. Also, the “decrease of TrxR activity” value at TrxR [3] and in the experiment on TrxR [4] was 60% in each case. The “increase of caspase-3 activity” value with Caspase-3 is given as “up to 50%”.
In the case of `C[CH2][Hg]` [EtHg, ethylmercury], the IC50 in the experiment with GL261 cells [1] (GL261, 24 h exposure) was found to be 2700 ± 300 nM; in the experiment with GL261 cells [1] (GL261, 48 h exposure), 2400 ± 400 nM; with GL261 cells [1] (GL261, 72 h exposure) it was 970 ± 70 nM; in the experiment with TrxR [4], 800 nM; with Trx it was 1300 nM. Further, the “increase of LDH release upon co-exposure with TMZ” value in the experiment with GL261 cells [2] was “greater than 50%”. For the same compound, the EC50 in the experiment with GL261 cells [2] was 1710 ± 400 nM. Moreover, the “EC50 (LDH) fold lower in GL261 than in SH-SY5Y cells” value with GL261 cells [2] (GL261 versus previously reported SH-SY5Y value (Branco et al., 2017)) was 3 fold. For the same compound, the “decrease of TrxR activity” value at TrxR [3] is recorded as “lesser effect”; in the experiment with TrxR [4] it was 50%. For the same compound, the “increase of caspase-3 activity” value in the experiment on Caspase-3 was “up to 50%”.
